Experimental data published in patent publication US20240292835A1, “Methods, Compositions and Devices for Insect Control” (Agriculture Victoria Services PTY LTD, priority 2020, published 2024).

How the values were obtained:
Assay type in all cases: in vivo, Carpophilus truncatus
C. truncatus antennae = assay: GC-EAD (gas chromatography coupled with electroantennography) screening of odour and pheromone septa extracts; details: for EAD: compounds in solvent extracts of commercial pheromone septa, key not given, antennae responded to all but one
Procedure: Pheromone compounds and other biologically active compounds present in odour extracts were screened by Gas Chromatography coupled with electroantennography (GC-EAD). The same GC setup used for chemical analysis was used in conjunction with an electroantennograph (Ockenfels Syntech GmbH, Germany). An apolar column SLB-5 MS (30 m×0.32 mm×0.25 μm) used as analytical column was connected to a CFT splitter plate (Capillary Flow Technology, Agilent). A constant flow of helium (1 mL/min) used as carrier and make-up gas was maintained towards the mass spectrometer. […] The EAD restrictor was fitted in a 50 cm transfer line (Ockenfels Syntech GmbH, Germany) heated at 250° C. allowing only the last 2 mm segment of the restrictor to protrude inside a glass mixing tube (3.8 mm inner diameter) positioned above the insect preparation and in which a 29 cm/s stream of purified air was applied. The described setup allowed relatively well-synced signals between all three detectors. One-week-old beetles were anesthetized on ice and immobilised in a micropipette tip with a cotton plug, with the upper part of the abdomen exposed. A sharp glass electrode filled with an electrolyte (0.1 N KCl, 3% PVP) was inserted into the head of the beetle (reference) while a similar electrode was positioned on the disc-shaped distal end of the antenna using a micromanipulator (FIG. 1). The antennal signal was amplified and recorded using an IDAC-4 (Ockenfels Syntech, Germany). When a good contact was obtained (checked via a 1% isopentyl acetate “puff” stimulation), an aliquot of volatile extract was injected in the GC and the sensitivity or lack thereof to individual compounds was determined by the overlay of MS/FID and EAD signals. Beetle odour extracts as well as extracts from commercial synthetic Carpophilus pheromones were screened by coupled gas chromatography-electroantennographic detection (GC-EAD) to test for beetle sensitivity to the putative pheromone and those of other Carpophilus species (FIG. 9).

[1] = system: C. truncatus male and female adult beetles; assay: Y-tube olfactometer bioassays with isolated pheromone fractions; details: 20 μl isolated fraction vs hexane control, diet odour in both arms
Procedure: Beetle orientation to different test odours was tested in a Y-tube glass olfactometer (ID: 2 cm, 10 cm stem and 7.5 cm choice arm length, 70° angle between arms) placed on a thick white paper sheet. All the experiments were conducted in a Controlled Environment Room at 28° C. The olfactometer was placed at a 30° angle to take advantage of beetles' natural negative geotaxis. Both arms of the Y-tube were connected via glass connectors or PTFE tubing to air-tight glass chambers in which different odours were applied. Activated charcoal-filtered air was circulated through the glass chambers entraining test odours to the choice arms of the Y-tube at 400 mL/min. The olfactometer was illuminated from above by dimmable fluorescent light tubes (Fititron, Weiss Gallenkamp, UK) covered by a sheet of UV-permitting diffusing white screen paper (Rosco 216, Germany). Light intensity at both ends of the two choice arms was measured and adjusted to 990 lux using a digital lux meter. Beetles were released individually in the olfactometer's main stem and observed for 10 min. Individuals that crossed the middle of either test arms (4 cm inside the arm; empirically designated as a non-return point) were considered to have made a choice. […] Preferences for male or female odours were assessed in a similar way by testing the beetle's orientation when simultaneous exposed to male and female beetle-infested diet. […]

C. truncatus [2] = assay: Laboratory dual-choice cage bioassays of co-attractant solutions; details: Experiment #2: solution lacking one component vs full commercial co-attractant (CL)
Procedure: Cage bioassays were developed for the rapid screening of beetle attraction to prototype co-attractant solutions. Adult beetles were separated in groups of hundred individuals (mixed sex) and starved for 48 h in (30 cm×30 cm×30 cm) mesh cages in Controlled Environment rooms (29° C., 60% RH, 16L:8D Photoperiod). Two plastic traps made from 30 mL plastic cups comprising four 5-mm holes equidistantly distributed along their circumference and a single hole in the lid were filled with 20 mL of freshly prepared test co-attractant solutions (FIG. 2) and placed inside the mesh cage approximately 15-20 cm apart. Beetles were allowed 48 h to choose between the two solutions. At the end of the experiments, traps were collected in plastic containers and beetles inside each treatment cups (alive or drowned) as well as non-selecting individuals were counted. Experiments were replicated a minimum of ten times for each prototype solution. An attraction index, used to determine the degree of attraction or deterrence of the test solution in comparison to the control, was calculated as follows: (n beetles in test solution)−(n beetles in control)/total n beetles. Attraction indices returned values ranging between −1 (extreme repellence) and +1 (extreme attraction); 0 corresponding to the absence of preference for either solutions. Deviation of the indices from zero was analysed using two tailed t-tests. Cage bioassays were used to test the attraction of C. truncatus to the commercial co-attractant (co-attractant vs water) and to screen the influence of individual constituents of the commercial Carpophilus co-attractant on C. truncatus attraction. The effect of different constituents was assessed by testing the co-attractant (control) against test co-attractant solutions in which one constituent was excluded.
In a first cage experiment (Experiment #1, table 4), the attraction of C. truncatus attraction to the commercial co-attractant (CL) was verified using water as a control treatment (FIG. 14).
In a second experiment (Experiment #2, table 4), the influence of individual components of the commercial co-attractant on C. truncatus was assessed by testing beetle's preferences between test co-attractant solutions in which a single compound was missing against the full formulation.

C. truncatus [3] = assay: Field trials in almond orchards, black funnel traps; details: field trial #3a; simplified co-attractant; FIG. 19
Procedure: All field trials were conducted in commercial almond orchards located in Mildura area (Victoria, Australia) between 2018 and 2020. Treatments were tested in black funnel traps (supplied by Bugs for Bugs; https://bugsforbugs.com.au/product/Carpophilus-[…]/) placed at ground level and secured using metal fence […] deeply anchored in the soil (FIG. 3). This differs from the conventional use of these traps in stone fruits where traps are suspended on […] 1.5 m height and derives from pilot experiments showing that more C. truncatus are caught when traps are placed on the ground (FIG. 5). An insecticidal strip (dichlorovos) was placed inside the traps to kill captured beetles. […] Beetles responses to different odours in Y-tube olfactometer experiments were analysed using binomial tests, assuming a distribution ratio of 1:1 between the two choice arms as the null-hypothesis. […] The deviation from zero of the attraction indices calculated in cage bioassays was analysed using paired t-tests. Field trial data were analysed as the mean weekly catches per trap over the period of the trials (between 2-6 weeks depending on beetle population density) using generalized linear mixed model fitted with a negative binomial distribution. […]

| SMILES | EAD (C. truncatus antennae) | effect of individual component of commercial co-attractant on C. truncatus (C. truncatus [2]) | also measured |
| --- | --- | --- | --- |
| C/C=C/C(=C/C(C)=C/C(C)=C/C)CC [Pheromone 1, (2E,4E,6E,8E)-7-Ethyl-3,5-dimethyl-2,4,6,8-decatetraene] | ✓ | – | attraction in Y-tube olfactometer [1]: more attractive than pheromone 2 |
| CC=O [acetaldehyde] | – | deterrent effect | – |
| CCO [ethanol] | – | main attractants | – |
| CCC(C)CO (stereo not shown) [2-methylbutanol] | – | deterrent effect | – |
| CC(C)CO [isobutyl alcohol] | – | no observable effect | – |
| C/C=C(C)/C=C(C)/C=C(/C=C/CC)CC [(2E,4E,6E,8E)-7-ethyl-3,5-dimethyl-2,4,6,8-undecatetraene] | ✓ | – | – |
| CCOC(C)=O [ethyl acetate] | – | deterrent effect | – |
| CC/C=C/C(=C/C(C)=C/CC)CC [(3E,5E,7E)-6-ethyl-4-methyl-3,5,7-decatriene] | ✓ | – | – |
| C/C=C(C)/C=C(/C=C/CC)CC [(2E,4E,6E)-5-ethyl-3-methyl-2,4,6-nonatriene] | ✓ | – | – |
| C/C=C(C)/C=C(C)/C=C(C)/C=C/CC [Pheromone 2, (2E,4E,6E,8E)-3,5,7-trimethyl-2,4,6,8-undecatetraene] | ✓ | – | GC-EAD responses of C. truncatus males and females (C. truncatus antennae; beetle odour extracts): strong and consistent GC-EAD responses; attraction in Y-tube olfactometer [1]: comparable level of attraction |
| C/C=C/C(C)=C/C(C)=C/C(C)=C/C [(2E,4E,6E,8E)-3,5,7-Trimethyl-2,4,6,8-decatetraene] | ✓ | – | – |
| CC(C)CCO [isopentyl alcohol] | – | main attractants | C. truncatus attraction at higher concentrations of isopentyl alcohol (C. truncatus [3]): significantly increase |
